Like-named read-outs stand apart in the source and are kept apart here.
Columns and labels:
human DNA polymerase β = molecular target: T1, human DNA polymerase β (Homo sapiens, UniProt P06746); assay: Human DNA Polymerase Assays; format: biochemical; settings: at concentrations up to 100 μM
T1 construct: purchased CHIMERx
Experimental: (§1) Inhibition of human DNA polymerases α, β and γ (CHIMERx) was determined in triplicate in reaction mixtures of serially diluted TA, 0.05 mM dCTP, dTTP, and dATP, 10 μCi [^32P]-α-dGTP (800 Ci/mmol), 20 μg activated calf thymus DNA and additional reagents specific for each polymerase.

human DNA polymerase γ = molecular target: T2, human DNA polymerase γ (Homo sapiens, UniProt P54098); assay: Human DNA Polymerase Assays; format: biochemical; settings: at concentrations up to 100 μM
T2 construct: purchased CHIMERx
T2 sequence (P54098 1-1239): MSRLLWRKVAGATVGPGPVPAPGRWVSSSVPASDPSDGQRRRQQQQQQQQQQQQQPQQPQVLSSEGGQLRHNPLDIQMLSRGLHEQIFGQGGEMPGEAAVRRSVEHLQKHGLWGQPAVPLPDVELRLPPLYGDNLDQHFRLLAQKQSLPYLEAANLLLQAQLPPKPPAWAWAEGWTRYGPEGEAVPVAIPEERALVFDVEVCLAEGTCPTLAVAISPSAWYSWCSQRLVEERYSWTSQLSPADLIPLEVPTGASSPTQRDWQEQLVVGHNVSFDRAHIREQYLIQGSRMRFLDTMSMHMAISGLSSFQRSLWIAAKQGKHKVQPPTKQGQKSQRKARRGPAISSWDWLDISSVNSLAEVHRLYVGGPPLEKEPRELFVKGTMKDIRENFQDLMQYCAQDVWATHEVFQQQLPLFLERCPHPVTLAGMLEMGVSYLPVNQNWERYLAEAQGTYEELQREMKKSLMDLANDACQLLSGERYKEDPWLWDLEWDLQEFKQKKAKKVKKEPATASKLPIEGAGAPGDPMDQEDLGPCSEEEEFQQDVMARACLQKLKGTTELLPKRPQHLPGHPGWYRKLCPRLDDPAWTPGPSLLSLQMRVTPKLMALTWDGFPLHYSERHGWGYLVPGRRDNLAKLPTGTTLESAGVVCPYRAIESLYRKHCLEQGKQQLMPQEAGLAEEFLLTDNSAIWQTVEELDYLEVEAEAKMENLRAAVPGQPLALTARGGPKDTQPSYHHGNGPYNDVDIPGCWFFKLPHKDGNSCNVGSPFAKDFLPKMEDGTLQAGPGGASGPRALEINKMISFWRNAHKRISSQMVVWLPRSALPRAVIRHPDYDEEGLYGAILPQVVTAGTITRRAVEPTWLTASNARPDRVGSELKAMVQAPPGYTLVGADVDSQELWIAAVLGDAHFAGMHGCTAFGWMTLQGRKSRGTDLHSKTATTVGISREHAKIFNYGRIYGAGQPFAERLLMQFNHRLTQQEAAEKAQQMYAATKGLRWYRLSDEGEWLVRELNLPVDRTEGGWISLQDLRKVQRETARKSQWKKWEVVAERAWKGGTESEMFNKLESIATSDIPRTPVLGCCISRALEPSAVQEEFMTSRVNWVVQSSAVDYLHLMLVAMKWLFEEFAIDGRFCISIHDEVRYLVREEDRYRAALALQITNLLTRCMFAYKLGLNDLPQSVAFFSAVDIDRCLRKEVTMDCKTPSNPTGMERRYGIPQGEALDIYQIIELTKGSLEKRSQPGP
Experimental: as §1

iPS Cardiomyocyte Assay = format: cell-based, human; settings: human, iPS cardiomyocytes
Experimental: iPS Cardiomyocytes (Cellular Dynamics) were seeded in microliter plates at 1.5×10^4 cells per well. After 48-hr incubation, cells were washed and maintenance medium containing serially diluted TA was added in triplicate. After incubating for an additional 3 days, cell viability was measured by staining with XTT and CC50 values were calculated.

[1] = tested on: micro-patterned human hepatocyte co-cultures; assay: Human Hepatocyte Co-Cultures (HepatoPac): cytotoxicity and hepatocyte health; format: cell-based; settings: for IC50: Homo sapiens, Hepatocyte
Experimental: Cytotoxicity and hepatocyte health were assessed in triplicate by measuring ALT leakage, urea production, albumin secretion and cellular ATP contents in micro-patterned human hepatocyte co-cultures (HepatoPac®, Hepregen Corporation) prepared by seeding cryopreserved human hepatocytes (single donor) and 3T3 J2 mouse fibroblasts in microtiter plates according to procedures established by Hepregen. Culture media was replaced with fresh media containing TA, test article, (0, 1, 10 or 30 μM) every 2 or 3 days through day 16. […] Cellular ATP levels were measured on days 9 and 21. ATP signals in stromal-only control cultures (murine 3T3 fibroblasts) were subtracted from those of human HepatoPac co-cultures to obtain hepatocyte-specific effects. See, Table 4, 5 and 6 below.

[2] = Stability in fresh human whole blood; format: in vitro ADME; settings: 10 μM, up to 120 min, FIG. 5
Experimental: The stability of selected compounds in fresh human whole blood and in human liver S9 fraction was determined in incubations containing 10 μM test compound. After incubations of 0, 30, 60 min, and up to 120 min, aliquots were removed and immediately extracted with 3 volumes of ice-cold methanol/acetonitrile (1:1, v/v). Extracts were centrifuged and supernatants were analyzed by LC-MS/MS for concentrations of unchanged test compound and potential metabolites.

Compound	inhibition of human DNA polymerase β (human DNA polymerase β)	inhibition of human DNA polymerase γ (human DNA polymerase γ)	CC50 at 3 day (iPS Cardiomyocyte Assay) [µM]	IC50 ([1]; 48 h, Table 5, Day 2, read-out: Effect on Albumin Secretion, 50% Inhibitory Concentration (IC50)) [µM]	IC50 ([1]; 48 h, Table 6, Day 2, read-out: Effect on Albumin Secretion, 50% Inhibitory Concentration (IC50)) [µM]	IC50 ([1]; 120 h, Table 5, Day 5, read-out: Effect on Albumin Secretion, 50% Inhibitory Concentration (IC50)) [µM]	IC50 ([1]; 120 h, Table 6, Day 5, read-out: Effect on Albumin Secretion, 50% Inhibitory Concentration (IC50)) [µM]	IC50 ([1]; 168 h, Table 5, Day 7, read-out: Effect on Albumin Secretion, 50% Inhibitory Concentration (IC50)) [µM]	IC50 ([1]; 168 h, Table 6, Day 7, read-out: Effect on Albumin Secretion, 50% Inhibitory Concentration (IC50)) [µM]	IC50 ([1]; 216 h, Day 9, read-out: Effect on Cellular ATP Concentrations, 50% Inhibitory Concentration (IC50)) [µM]	IC50 ([1]; 216 h, Table 5, Day 9, read-out: Effect on Albumin Secretion, 50% Inhibitory Concentration (IC50)) [µM]	IC50 ([1]; 216 h, Table 6, Day 9, read-out: Effect on Albumin Secretion, 50% Inhibitory Concentration (IC50)) [µM]	IC50 ([1]; 288 h, Table 6, Day 12, read-out: Effect on Albumin Secretion, 50% Inhibitory Concentration (IC50)) [µM]	IC50 ([1]; 384 h, Table 6, Day 16, read-out: Effect on Albumin Secretion, 50% Inhibitory Concentration (IC50)) [µM]	IC50 ([1]; 504 h, Day 21, read-out: Effect on Cellular ATP Concentrations, 50% Inhibitory Concentration (IC50)) [µM]	IC50 ([1]; 504 h, Table 6, Day 21, read-out: Effect on Albumin Secretion, 50% Inhibitory Concentration (IC50)) [µM]	signs of cytotoxicity by ALT leakage, albumin secretion, urea production and cellular ATP content ([1]; concentrations up to 30 μM, up to 12 days)	cytotoxicity with extended exposure ([1]; up to 21 days of culture)	stability in human blood [2]
CC(C)OC(=O)[C@H](C)N[P@](=O)(OCC1O[C@@H](n2cnc3c(N(C)C4CC4)nc(N)nc32)[C@](C)(F)[C@@H]1O)Oc1ccccc1 (stereo partly drawn) [Compound 27, isopropyl ((((S)-(2R,3R,4R,5R)-5-(2-amino-6-(methylcyclopropanamino)-9H-purin-9-yl)-4-fluoro-3-hydroxy-4-methyltetrahydrofuran-2-yl)methoxy)-phenoxy-phosphoryl)-L-alaninate]	No inhibition	No inhibition	> 100																
CNc1nc(N)nc2c1ncn2[C@@H]1OC(CO[P@@](=O)(N[C@@H](C)C(=O)OC(C)C)Oc2ccccc2)[C@@H](O)[C@@]1(C)F (stereo partly shown) [Compound 5-2]				> 30	> 30	> 30	> 30	> 30	> 30	> 30	> 30	> 30	> 30	24.2	12.8	14.5	no signs of cytotoxicity	minor indications of cytotoxicity	excellent stability
CC(C)OC(=O)[C@H](C)N[P@](=O)(OCC1O[C@@H](n2cnc3c(N(C)C)nc(N)nc32)[C@](C)(F)[C@@H]1O)Oc1ccccc1 (stereo partly drawn) [Compound 25, isopropyl ((((S)-(2R,3R,4R,5R)-5-(2-amino-6-(dimethylamino)-9H-purin-9-yl)-4-fluoro-3-hydroxy-4-methyltetrahydrofuran-2-yl)methoxy)-phenoxy-phosphoryl)-L-alaninate]	No inhibition	No inhibition	> 100																

Reference: patent publication US12084473B2, “β-D-2′-deoxy-2′-α-fluoro-2′-β-C-substituted-2-modified-N6-substituted purine nucleotides for HCV treatment” (Atea Pharmaceuticals, Inc., priority 2015, dated 2024)
